Source: patent US20240156800A1, “EP300 DEGRADER AND USES THEREOF IN NEUROBLASTOMA” (DANA-FARBER CANCER INSTITUTE, INC., priority 2021, published 2024)

Target: T1, EP300 (Homo sapiens, UniProt Q09472)
T1 construct: Cells growing in culture were lysed for whole cell lysates; endogenous in cells; host or cells: Kelly, NGP, SIMA, BE2C neuroblastoma cells; Kelly xenografts in NSG mice
Test: Western blotting of EP300 in treated NB cells
Assay type: cell-based
Protocol: Cells growing in culture were lysed for whole cell lysates as described in Durbin et al. Nat. Genet. 50:1240-1246 (2018) and Wang et al. Nat. Commun. 10:5622 (2019). Nuclear lysates were prepared using the NE-PER® nuclear lysate kit (Thermo Scientific™) according to the manufacturer's protocol. Chromatin lysates were prepared with the total histone extraction kit (Epigentek). Briefly, equivalent amounts of protein were resolved by western blotting using 4-12% Bis-Tris NuPAGE™ gels (Thermo-Fisher Scientific) prior to transfer, and immunoblotting using primary antibodies to: MYCN (1:1000, Cell Signaling Technology®), H3K27ac (1:1000, Abcam), total H3 (1:1000, Cell Signaling Technology®), EP300 (1:1000, Abcam), CBP (1:500, Cell Signaling Technology®), Cas9 (1:1000, Cell Signaling Technology®), cleaved-PARP1 (1:1000, Cell Signaling Technology), cleaved Caspase-3 (1:1000, Cell Signaling Technology®), β-actin (1:1000, Cell Signaling Technology®), GATA3 (1:1000, EMD Millipore™), TFAP2β (1:1000, Cell Signaling Technology®), Vinculin (1:1000, EMD Millipore™), CRBN (1:1000, Cell Signaling Technology®), HAND2 (1:1000, Santa Cruz Biotechnology). Secondary antibodies were horseradish peroxidase (HRP)-conjugated anti-rabbit or anti-mouse (1:5000, Santa Cruz Biotechnology), incubated prior to exposure to enhanced chemiluminescence reagents (GE, Amersham). For immunoprecipitation, equal amounts of protein were diluted in buffer C as described in Mansour et al. Science 346:1373-1377 (2014) and incubated with antibodies covalently conjugated to Dynabeads™ M-270 beads (Thermo-Fisher Scientific) overnight according to the manufacturer's directions. Antibodies used included: H3K27ac, EP300 (Abcam), CBP, TFAP2β (Cell Signaling Technology®), rabbit immunoglobulin G (IgG) (Santa Cruz Biotechnology®). Immunoprecipitated protein was isolated as per the manufacturer's directions and subjected to western blotting, as described above, or mass spectrometry.

T1 sequence (Q09472 whole entry): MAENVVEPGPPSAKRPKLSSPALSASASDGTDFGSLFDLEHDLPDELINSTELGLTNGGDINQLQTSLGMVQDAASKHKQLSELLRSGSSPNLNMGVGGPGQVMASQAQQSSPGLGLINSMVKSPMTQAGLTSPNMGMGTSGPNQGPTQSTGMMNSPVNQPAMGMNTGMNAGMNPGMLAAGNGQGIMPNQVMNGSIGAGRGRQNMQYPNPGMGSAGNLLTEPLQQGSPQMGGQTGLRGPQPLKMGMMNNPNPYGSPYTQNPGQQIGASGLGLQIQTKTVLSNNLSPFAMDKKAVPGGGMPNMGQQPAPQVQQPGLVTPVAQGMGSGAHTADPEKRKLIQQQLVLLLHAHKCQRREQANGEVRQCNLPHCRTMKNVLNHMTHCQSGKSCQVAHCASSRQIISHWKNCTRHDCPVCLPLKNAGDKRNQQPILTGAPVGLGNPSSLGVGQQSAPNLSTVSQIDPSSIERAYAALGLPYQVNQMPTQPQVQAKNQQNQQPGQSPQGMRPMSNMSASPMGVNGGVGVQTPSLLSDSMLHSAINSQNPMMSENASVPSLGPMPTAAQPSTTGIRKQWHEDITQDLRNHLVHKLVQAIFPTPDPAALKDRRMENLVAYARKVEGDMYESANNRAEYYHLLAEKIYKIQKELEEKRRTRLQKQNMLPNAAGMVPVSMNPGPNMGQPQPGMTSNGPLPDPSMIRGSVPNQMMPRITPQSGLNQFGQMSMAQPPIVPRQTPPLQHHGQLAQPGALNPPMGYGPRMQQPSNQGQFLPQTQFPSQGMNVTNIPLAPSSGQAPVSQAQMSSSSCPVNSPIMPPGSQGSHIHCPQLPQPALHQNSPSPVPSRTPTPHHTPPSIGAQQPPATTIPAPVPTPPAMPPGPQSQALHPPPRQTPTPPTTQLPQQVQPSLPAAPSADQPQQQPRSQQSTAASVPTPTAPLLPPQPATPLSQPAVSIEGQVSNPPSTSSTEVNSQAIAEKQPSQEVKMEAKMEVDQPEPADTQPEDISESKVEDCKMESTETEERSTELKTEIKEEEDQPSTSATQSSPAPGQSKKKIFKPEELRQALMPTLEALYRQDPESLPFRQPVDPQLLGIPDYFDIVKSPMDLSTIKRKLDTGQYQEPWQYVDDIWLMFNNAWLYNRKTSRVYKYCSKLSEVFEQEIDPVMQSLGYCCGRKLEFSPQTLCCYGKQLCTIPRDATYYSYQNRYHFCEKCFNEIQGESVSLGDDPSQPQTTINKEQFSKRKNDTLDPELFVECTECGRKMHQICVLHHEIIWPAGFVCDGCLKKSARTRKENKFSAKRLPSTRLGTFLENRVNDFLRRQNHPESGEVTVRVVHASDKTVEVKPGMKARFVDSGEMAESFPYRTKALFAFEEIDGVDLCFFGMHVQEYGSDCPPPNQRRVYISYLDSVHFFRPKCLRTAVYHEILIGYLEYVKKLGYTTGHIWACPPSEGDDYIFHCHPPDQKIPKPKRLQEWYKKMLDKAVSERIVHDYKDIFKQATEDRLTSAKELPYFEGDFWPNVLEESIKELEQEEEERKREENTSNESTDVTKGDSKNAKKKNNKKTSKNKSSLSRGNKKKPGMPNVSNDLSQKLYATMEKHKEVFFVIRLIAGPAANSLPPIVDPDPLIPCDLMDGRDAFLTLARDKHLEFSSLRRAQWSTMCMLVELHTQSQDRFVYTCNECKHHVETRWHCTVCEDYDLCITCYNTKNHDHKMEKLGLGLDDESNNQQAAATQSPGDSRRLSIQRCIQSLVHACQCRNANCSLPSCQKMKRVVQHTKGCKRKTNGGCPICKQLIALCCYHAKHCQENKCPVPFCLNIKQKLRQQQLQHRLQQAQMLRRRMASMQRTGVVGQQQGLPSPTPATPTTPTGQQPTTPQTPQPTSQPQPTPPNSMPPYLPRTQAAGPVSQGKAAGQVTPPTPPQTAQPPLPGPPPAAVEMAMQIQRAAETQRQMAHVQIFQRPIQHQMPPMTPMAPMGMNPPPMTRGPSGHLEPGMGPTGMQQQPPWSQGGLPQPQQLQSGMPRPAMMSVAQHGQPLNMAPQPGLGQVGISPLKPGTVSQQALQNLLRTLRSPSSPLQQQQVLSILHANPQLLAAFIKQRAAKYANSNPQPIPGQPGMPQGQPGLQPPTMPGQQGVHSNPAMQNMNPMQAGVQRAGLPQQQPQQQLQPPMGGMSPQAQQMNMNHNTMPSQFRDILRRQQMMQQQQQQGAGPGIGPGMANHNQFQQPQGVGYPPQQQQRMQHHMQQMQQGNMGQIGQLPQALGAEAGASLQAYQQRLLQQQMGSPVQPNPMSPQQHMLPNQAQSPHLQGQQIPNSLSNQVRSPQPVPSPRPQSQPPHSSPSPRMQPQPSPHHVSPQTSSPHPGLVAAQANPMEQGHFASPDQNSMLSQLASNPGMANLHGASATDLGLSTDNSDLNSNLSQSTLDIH

Compound: C[C@H](N(Cc1ccc(F)cc1)C(=O)CN1C(=O)O[C@@]2(CCc3cc(NC(=O)CCCCCCCCCCCNc4ccc5c(c4)C(=O)N(C4CCC(=O)NC4=O)C5=O)ccc32)C1=O)C(F)(F)F (stereo partly drawn) [JQAD1, 12-((2-(2,6-dioxopiperidin-3-yl)-1,3-dioxoisoindolin-5-yl)amino)-N-((R)-3′-(2-((4-fluorobenzyl)((S)-1,1,1-trifluoropropan-2-yl)amino)-2-oxoethyl)-2′,4′-dioxo-2,3-dihydrospiro[indene-1,5′-oxazolidin]-5-yl)dodecanamide]
- EP300 expression in BE2C-CRBN cells (BE2C cells overexpressing CRBN, 10 μM): degraded within 24 h
- EP300 expression in control BE2C-zsGreen cells (BE2C-zsGreen cells, 10 μM): unaffected
- degradation of EP300 on co-treatment with excess A485, pomalidomide, bortezomib or MLN4924 (Kelly cells, 4 h pre-treatment, then JQAD1 500 nM 48 h): blocked
- EP300 expression (Kelly cells, 24 h): dose-dependent decrease in EP300 expression
- EP300 expression (Kelly cells, 24 h, listed as (R,S)-JQAD1): suppressed both H3K27ac and EP300 expression levels
- EP300 expression (time course) (Kelly, NGP and SIMA cells): selective loss of EP300 expression by 24 h
- EP300, H3K27ac and PARP1 cleavage in control versus CRBN-edited cells (Kelly-Cas9 cells, 500 nM, 24 h): suppressed EP300 expression and the H3K27ac modification, and induced apoptosis marked by PARP1 cleavage in control knockout cells, but not in CRBN-edited cells
